Test results published in patent US20180290138A1, “MICROFLUIDIC CHIP FOR SCREENING ANTICANCER DRUG RESISTANT CELLS AND USE THEREOF” (RESEARCH & BUSINESS FOUNDATION SUNGKYUNKWAN UNIVERSITY, priority 2015, published 2018).

Key:
U87-DG cells = test: Evaluation of anticancer drug resistance: cell viability with doxorubicin, U87-DG cells (chip cells); format: cell-based; details: Homo sapiens; U87-DG cells (chip cells) cultured with Death galaxy chip under doxorubicin gradient; 72 h culture; living cell count; non-linear regression
Source text: In the Death galaxy chip, for 7 days, U87 cells derived from human primary glioblastoma were exposed to an anticancer drug such as doxorubicin according to a concentration gradient, and a hexagonal microchamber array was removed from a surface of the living cells (U87-DG cells)-attached cell culture plate. The inventors trypsinized the U87-DG cells to analyze the characteristic of phenotypes thereof, collected the cells, and transferred them to a new culture plate to culture the cells in a normal growth medium (MEM) for one week.
(§1) 3,000 cells (U87 and U87-DG cells) were seeded into a 96-well plate in 200 μl of an MEM medium containing doxorubicin at various concentrations (0, 0.005, 0.01, 0.02, 0.05, 0.1, 0.2, 0.5, 0.75, and 1 μM). After seventy-two hours of culturing, the number of living cells in each well was calculated. Cell viability was calculated by dividing the number of living cells in a doxorubicin-contained well by the number of living cells in a doxorubicin-free well. After plotting a concentration of doxorubicin with respect to cell viability, IC50 was estimated through non-linear regression analysis using Graphpad Prism (GraphPad Software, Inc., La Jolla, Calif. USA).

U87 cells = test: Evaluation of anticancer drug resistance: cell viability with doxorubicin, U87 cells (WT cells); format: cell-based; details: Homo sapiens, U-87 MG; U87 cells (WT cells) cultured in general medium; 72 h culture; living cell count; non-linear regression
Method: as §1

Work on COc1cccc2c1C(=O)c1c(O)c3c(c(O)c1C2=O)C[C@@](O)(C(=O)CO)C[C@@H]3O[C@H]1C[C@H](N)[C@H](O)[C@H](C)O1 [doxorubicin] yielded an IC50 (U87-DG cells) of 1.47 µM and an IC50 (U87 cells) of 0.05 µM.
